# Test results: article PMC8154419, “Druggable Hot Spots in the Schistosomiasis Cathepsin B1 Target Identified by Functional and Binding Mode Analysis of Potent Vinyl Sulfone Inhibitors” (ACS Infectious Diseases, 2020)
# Values joined by “and” are separate entries in the source; they are usually repeats but may differ in a detail not shown here. Equal entries are not always repeated.
# How the values were obtained:
# SmCB1 [1] = target: T1, SmCB1 (Schistosoma mansoni, UniProt Q8MNY2, T185A/T300A); assay: SmCB1 kinetic inhibition assay (IC50) with fluorogenic substrate Cbz–Phe–Arg–AMC; assay type: biochemical; conditions: recombinant SmCB1, Cbz–Phe–Arg–AMC, pH 5.5; mean ± SE, triplicate; n.i.: no significant inhibition at 100 μM
# From the text: Thirty-four peptidomimetic vinyl sulfone analogs (including vinyl sulfonamides and vinyl sulfonate esters) were explored as potential inhibitors of SmCB1 to infer the structural requirements of the inhibitor-binding subsites in the enzyme active site cleft. The compound scaffold is defined by positions P3 through P1′, and the substitutions were selected to provide a high diversity at P2 and P1′ (Table 1). These two positions were recently reported to display large differences in the subsite interaction energy in response to their structural modifications.[10] The compounds were screened in vitro against recombinant SmCB1, and their IC50 values were determined using a kinetic inhibition assay with the fluorogenic substrate Cbz–Phe–Arg–AMC.
# (§1) Inhibition measurements were performed in triplicates in 96-well microplates (100 μL assay volume) at 37 °C. […] The kinetics of product release was continuously monitored in an Infinite M1000 microplate reader (Tecan) at excitation and emission wavelengths of 360 and 465 nm, respectively. The IC50 values were determined by nonlinear regression using GraFit software. To determine the inhibition constant k2nd, the enzyme (40 pM SmCB1 or 60 pM HuCB) was added to a mixture of the fluorogenic substrate Cbz–Phe–Arg–AMC (20 μM for SmCB1 and 33 μM for HuCB) and an inhibitor (0–1 μM) in the assay buffer under assay conditions as above. The hydrolysis of substrate was monitored for 30 min in a microplate reader as described above. An observed rate constant, kobs, was calculated at each inhibitor concentration by fitting the progress curve to the equation P = vi/kobs(1 – e^–kobst), where P is the product formation, vi is the initial velocity, and t is the reaction time. For both enzymes, kobs varied linearly with the inhibitor concentration showing that the dependence of kobs on the inhibitor concentration is nonsaturating. […] The second order rate constant, k2nd, was determined by fitting to the linear equation kobs = (k2nd[I])/(1 + [S]/KM), where [S] is the substrate concentration, [I] is the inhibitor concentration, and KM is the Michaelis–Menten constant. KM values determined for SmCB1 and HuCB were 25 and 38 μM, respectively.
# [2] = In vitro plasma stability; assay type: in vitro ADME; conditions: 5 μM inhibitor, pooled human plasma, 30 min, 37°C
# Method: Finally, we evaluated the metabolic stability of the inhibitors in human plasma in vitro. The stability was expressed as the percentage of parental compound remaining in plasma after 30 min of incubation.
# Figure S2. Antischistosomal activity, cytotoxicity, and plasma stability of selected vinyl sulfone inhibitors. A. Induction of phenotypic alterations by the inhibitors was determined with newly transformed schistosomula (NTS) of S. mansoni. The inhibitors were tested at 1 and 10 µM concentrations for 24, 48 and 72 h, and the resulting phenotypes are shown as descriptor s .2 B. Example of an inhibitor-induced phenotype in NTS of S. mansoni versus untreated controls. Images were captured using a Zeiss Axiovert 40 C inverted microscope (10x objective) and a Zeiss AxioCam MRc digital camera controlled by AxioVision 40 (v. 4.8.1.0) software. Scale bar = 0.2 mm. C. Cytotoxicity of the inhibitors towards four human cell lines expressed as % viability vs. untreated cells. Cells were treated with the indicated concentration of the compounds for 72 h and assayed by means of the XTT test (as described previously3). Standard deviation values were within 10% of the mean of tetraplicates. D. In vitro plasma stability was determined for 5 µM inhibitors incubated with pooled human plasma (Biowest) for 30 min at 37°C. The samples were deproteinized by acetonitrile a nd quantified by LC-MS (Exion LC AD/QTrap 6500+, AB Sciex). Data are expressed as a percentage of the remaining parent compound after 30 min incubation; standard deviations of the means ar e gi ve n for duplicate measurements.
# (1 picture or pasted object on this page, not shown here)
# SmCB1 [3] = target: T1, SmCB1; assay: biochemical; assay type: biochemical; conditions: pH 5.5, read-out: second order rate constant k2nd SmCB1
# Method: (§2) (A) Sensitivity of SmCB1 and its human ortholog cathepsin B (HuCB) to inhibitors. The second order rate constants were measured in a kinetic activity assay with the fluorogenic peptide substrate Cbz–Phe–Arg–AMC at pH 5.5. […] Resulting phenotypes observed at three time points were graded by the severity score ranging from 0 to 4, with 4 being the most severe (see Figure S2A,B).
# as §1, with “above.” for “above. An observed rate constant, kobs, was calculated at each inhibitor concentration by fitting the progress curve to the equation P = vi/kobs(1 – e^–kobst), where P is the product formation, vi is the initial velocity, and t is the reaction time. For both enzymes, kobs varied linearly with the inhibitor concentration showing that the dependence of kobs on the inhibitor concentration is nonsaturating.”, “constant.” for “constant. KM values determined for SmCB1 and HuCB were 25 and 38 μM, respectively.”
# SmCB1 [4] = assay: biochemical; assay type: biochemical, Schistosoma mansoni; conditions: k2nd for SmCB1 to k2nd for human cathepsin B
# Method: as §2
# as §1, with “above.” for “above. An observed rate constant, kobs, was calculated at each inhibitor concentration by fitting the progress curve to the equation P = vi/kobs(1 – e^–kobst), where P is the product formation, vi is the initial velocity, and t is the reaction time. For both enzymes, kobs varied linearly with the inhibitor concentration showing that the dependence of kobs on the inhibitor concentration is nonsaturating.”, “constant.” for “constant. KM values determined for SmCB1 and HuCB were 25 and 38 μM, respectively.”
# [5] = test system: S. mansoni newly transformed schistosomula (NTS); assay: Parasite assay and phenotype scoring of newly transformed schistosomula; assay type: cell-based, Schistosoma mansoni; conditions: score 0 to 4, 4 most severe
# Method: The NTS were exposed to 1 and 10 μM inhibitors, and the resulting phenotypes were graded 0 through 4 from the least to the most severe (Figure 4B).[25],[26] […] The investigated inhibitors were also tested for their cytotoxicity against four human cell lines over 72 h.
# Newly transformed schistosomula (NTS) of S. mansoni were prepared by mechanically transforming infective larvae (cercariae) as described previously.[67] NTS (200–300 parasites) were incubated in 200 μL of Basch Medium 169[68] containing 5% heat-inactivated fetal bovine serum, 100 U/mL penicillin, and 100 μg/mL streptomycin at 5% CO2 and 37 °C.[67],[69] […] We use single word or phrase “descriptors”[35] to record changes in movement, shape, and translucence (Figure S2).
# Figure S2. Antischistosomal activity, cytotoxicity, and plasma stability of selected vinyl sulfone inhibitors. A. Induction of phenotypic alterations by the inhibitors was determined with newly transformed schistosomula (NTS) of S. mansoni. The inhibitors were tested at 1 and 10 µM concentrations for 24, 48 and 72 h, and the resulting phenotypes are shown as descriptor s .2 B. Example […]
# captured using a Zeiss Axiovert 40 C inverted microscope (10x objective) and a Zeiss AxioCam MRc digital camera controlled by AxioVision 40 (v. 4.8.1.0) software. Scale bar = 0.2 mm. C. […]
# human cathepsin B (HuCB) = target: T2, human cathepsin B (HuCB) (Homo sapiens, UniProt P07858); assay: Second order rate constant (k2nd) of inhibition, human cathepsin B; assay type: biochemical
# T2 construct: purchased Calbiochem
# Method: as §2
# as §1, with “above.” for “above. An observed rate constant, kobs, was calculated at each inhibitor concentration by fitting the progress curve to the equation P = vi/kobs(1 – e^–kobst), where P is the product formation, vi is the initial velocity, and t is the reaction time. For both enzymes, kobs varied linearly with the inhibitor concentration showing that the dependence of kobs on the inhibitor concentration is nonsaturating.”, “constant.” for “constant. KM values determined for SmCB1 and HuCB were 25 and 38 μM, respectively.”
# T1 sequence (Q8MNY2 87-340 T185A/T300A): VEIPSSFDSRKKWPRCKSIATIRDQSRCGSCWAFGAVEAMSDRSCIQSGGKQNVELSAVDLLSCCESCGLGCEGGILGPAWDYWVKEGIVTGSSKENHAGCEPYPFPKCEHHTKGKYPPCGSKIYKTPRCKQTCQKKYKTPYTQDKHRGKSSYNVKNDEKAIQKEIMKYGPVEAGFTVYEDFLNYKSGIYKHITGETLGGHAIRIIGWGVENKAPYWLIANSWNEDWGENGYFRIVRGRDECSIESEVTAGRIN
SMILES,IC50 (SmCB1 [1]),also measured
O=C(N[C@H](/C=C/S(=O)(=O)c1ccccc1)CCc1ccccc1)[C@H](Cc1ccccc1)NC(=O)N1CCC(N2CCOCC2)CC1 [CRA-554],6 ± 0.89 nM,
CCOC(=O)C1CCN(C(=O)N[C@@H](Cc2ccc(O)cc2)C(=O)N[C@H](/C=C/S(=O)(=O)c2ccccn2)CCc2ccccc2)CC1 [WRR-391],~0.2 nM and 0.24 nM,"percentage of remaining parent compound in plasma [2]: 54%; kinact/KI (SmCB1 [3]): 208000 M⁻¹ s⁻¹; selectivity ratio (SmCB1 [4]): ~1.4; severity score ([5]; 1 μM, 24 hours): 0; severity score ([5]; 1 μM, 48 hours): 0; severity score ([5]; 1 μM, 72 hours): 0; severity score ([5]; 10 μM, 24 hours): 0; severity score ([5]; 10 μM, 48 hours): 0; severity score ([5]; 10 μM, 72 hours): 4; second order rate constant k2nd HuCB (human cathepsin B (HuCB); Cbz–Phe–Arg–AMC, pH 5.5, mean of triplicate): 152 806 M^–1 s^–1; kinact/KI (human cathepsin B (HuCB); pH 5.5, read-out: second order rate constant k2nd HuCB): 153000 M⁻¹ s⁻¹"
CCC[C@@H](/C=C/S(=O)(=O)c1ccccc1)NC(=O)[C@H](Cc1ccc2ccccc2c1)NC(=O)N1CCC(N2CCOCC2)CC1 [CRA-547],~40 nM and 39.2 nM,
O=C(N[C@@H](Cc1cc(I)c(O)c(I)c1)C(=O)N[C@H](/C=C/S(=O)(=O)c1ccccc1)CCc1ccccc1)c1ccc(N2CCOCC2)cc1 [CRA-422],665 ± 98 nM,
CCOC(=O)C1CCN(C(=O)N[C@@H](CC2CCCCC2)C(=O)N[C@H](/C=C/S(=O)(=O)c2ccccc2)CCc2ccccc2)CC1 [WRR-436],72.1 ± 9.1 nM,
CCC[C@@H](/C=C/S(=O)(=O)c1ccccc1)NC(=O)[C@H](Cc1c(F)cccc1F)NC(=O)c1ccc(-c2ccccc2Cl)cc1 [CRA-845],,Inhibition IC50 (SmCB1 [1]): n.i.
CCC[C@@H](/C=C/S(=O)(=O)c1ccccc1)NC(=O)[C@H](CSCc1ccccn1)NC1=NS(=O)(=O)c2ccccc21 [CRA-393],3450 ± 346 nM,
CNS(=O)(=O)/C=C/[C@H](C)NC(=O)[C@H](Cc1ccccc1)NC(=O)OCc1ccccc1 [WRR-206],93.7 ± 7.3 nM,
O=C(N[C@@H](Cc1ccccc1)C(=O)N[C@H](/C=C/S(=O)(=O)c1ccccn1)CCc1ccccc1)OCc1ccccc1 [WRR-255],1.5 ± 0.13 nM,
C[C@@H](/C=C/S(=O)(=O)NCCc1ccccc1)NC(=O)[C@H](Cc1ccccc1)NC(=O)OCc1ccccc1 [WRR-186],629 ± 57 nM,
O=C(N[C@@H](Cc1ccccc1)C(=O)N[C@H](/C=C/S(=O)(=O)CCc1ccccc1)CCc1ccccc1)OCc1ccccc1 [WRR-257],9520 ± 607 nM,
C[C@@H](/C=C/S(=O)(=O)NCc1ccc(F)cc1)NC(=O)[C@H](Cc1ccccc1)NC(=O)OCc1ccccc1 [WRR-196],1250 ± 173 nM,
O=C(N[C@H](/C=C/S(=O)(=O)c1ccccc1)CCc1ccccc1)[C@H](CS(=O)(=O)Cc1ccccc1)NC(=O)N1CCOCC1 [CRA-891],212 ± 10 nM,
CCCC[C@@H](/C=C/S(=O)(=O)c1ccccc1)NC(=O)[C@H](Cc1ccccc1)NC(=O)N1CCC(N2CCOCC2)CC1 [CRA-553],13.2 ± 1.3 nM,
CCCC[C@@H](/C=C/S(=O)(=O)c1ccccc1)NC(=O)[C@@H](N)Cc1cc(I)c(O)c(I)c1 [CRA-373],425 ± 46 nM,
CCC[C@@H](/C=C/S(=O)(=O)c1ccccc1)NC(=O)C1(NC(=O)N2CCN(C)CC2)CCCCC1 [CRA-555],,Inhibition IC50 (SmCB1 [1]): n.i.
CCC[C@@H](/C=C/S(=O)(=O)c1ccccc1)NC(=O)[C@H](Cc1ccccc1)NC(=O)N1CCC(N2CCOCC2)CC1 [CRA-446],44.6 ± 6.1 nM,
CN1CCN(C(=O)N[C@@H](Cc2ccccc2)C(=O)N[C@H](/C=C/S(=O)(=O)Oc2ccc(F)cc2)CCc2ccccc2)CC1 [WRR-353],119 ± 16 nM,
C[C@@H](/C=C/S(=O)(=O)NCc1ccc(F)cc1F)NC(=O)[C@H](Cc1ccccc1)NC(=O)OCc1ccccc1 [WRR-197],1130 ± 120 nM,
CCCC[C@@H](/C=C/S(=O)(=O)c1ccccc1)NC(=O)[C@H](Cc1ccccc1)NC(=O)N1CCC(N2CCCCC2)CC1 [CRA-892],7.5 ± 0.58 nM,
C[C@@H](/C=C/S(=O)(=O)NCc1ccc(Cl)cc1)NC(=O)[C@H](Cc1ccccc1)NC(=O)OCc1ccccc1 [WRR-201],541 ± 76 nM,
CCC[C@@H](/C=C/S(=O)(=O)c1ccccc1)NC(=O)[C@H](Cc1ccc(F)cc1)NC(=O)N1CCC(N2CCOCC2)CC1 [CRA-552],202 ± 25 nM,
CCC[C@@H](/C=C/S(=O)(=O)c1ccccc1)NC(=O)[C@H](CC1CCCCC1)NC=NS(=O)(=O)c1ccccc1 [CRA-359],9990 ± 280 nM,
O=C(N[C@@H](Cc1ccccc1)C(=O)N[C@H](/C=C/S(=O)(=O)Oc1ccc([N+](=O)[O-])cc1)CCc1ccccc1)OCc1ccccc1 [WRR-258],50.1 ± 4.9 nM,
O=C(N[C@H](/C=C/S(=O)(=O)c1ccccc1)CCc1ccccc1)[C@H](CCS(=O)(=O)c1ccccc1)NC(=O)N1CCOCC1 [CRA-009],186 ± 19 nM,
CCC[C@@H](/C=C/S(=O)(=O)c1ccccc1)NC(=O)[C@H](Cc1ccccc1Cl)NC1=NS(=O)(=O)c2ccccc21 [CRA-383],10000 to 100000 nM,
O=C(N[C@H](/C=C/S(=O)(=O)c1ccccc1)CCc1ccccc1)[C@H](CS(=O)(=O)Cc1ccccc1OC(F)F)NC(=O)N1CCOCC1 [CRA-012],477 ± 43 nM,
CCCC[C@@H](/C=C/S(=O)(=O)c1ccccc1)NC(=O)[C@H](Cc1cc(I)c(O)c(I)c1)NC(=O)OC(C)(C)C [CRA-372],6250 ± 322 nM,
C[C@@H](/C=C/S(=O)(=O)Oc1ccccc1)NC(=O)[C@H](Cc1ccccc1)NC(=O)OCc1ccccc1 [WRR-199],2.55 ± 0.2 nM,
